Data published in patent US20180353461A1, “USE OF CANNABINOIDS AS CERAMIDE-GENERATING ANTICANCER AGENTS IN TUMORS OF THE HEMATOPOIETIC AND LYMPHOID TISSUES” (priority 2014, published 2018).

Experiments:
HL60 cells [1] = test: Western blot of signaling pathways (MAPKs, Akt) in HL60 cells; format: cell-based, human
Experimental: Protein analyses were performed by Western blot in several sets of assays: expression pattern of CBs-receptors in AML cell lines and primary cells, and time course after treatment with cannabinoids in AML cell lines.
Cells were solubilized with ice-cold lysis buffer containing 2% ASB-14 (CalbioChem, San Diego, Calif., USA), 1% Nonidet P-40 (Ipegal®), 137 mM NaCl, 20 mM Tris-HCl pH 7.5 at 4° C. (all from Sigma-Aldrich), 2 mM Na3VO4, 20 mM NaF (New England BioLabs Inc., Ipswich, Mass., USA), 2 mM DTT (AppliChem, Darmstadt, Germany), protease inhibitor cocktail (Roche Diagnostics GmbH, Mannheim, Germany), and 10 ul Nuclease Mix (Amersham GE Healthcare, Uppsala, Sweden). Insoluble materials were removed by centrifugation at 13,000×g for 15 min at 4° C. Protein content was determined by Pierce® Microplate BCA Protein Assay kit-Reducing Agent Compatible (Thermo Fisher Scientific).
Extracted proteins (15-25 ug/well) were separated by sodium dodecyl sulfate-polyacrylamide gel electrophoresis (SDS/PAGE) in pre-cast polyacrylamide gels AnykD (Bio-Rad Laboratories, Hercules, Calif., USA) under reducing and denaturing conditions. Electrophoretic run was performed at a constant current of 15 mA per gel in a Mini-Protean® Tetra Cell (Bio-Rad Laboratories) and were electrophoretically transferred onto PVDF membranes using Trans-Blot® Turbo™ System (Bio-Rad Laboratories). Blocking was performed with 2% bovine serum albumin [(BSA), Santa Cruz Biotechnology] in Tween-Tris buffer saline (TTBS). Membranes were incubated overnight at 4° C. with corresponding primary antibody in TTBS.
Detection was performed using Western Blotting Luminol Reagent (Santa Cruz Biotechnology).
Signaling pathways targeted by cannabinoids in leukemic cells. To get further insights into the mechanisms of cannabinoids-induced apoptosis, we assessed the expression profile of phosphorylated-JNK, -Erk1/2, -p38 MAPK and -Akt by Western blot.

HL60 cells [2] = test: Mitochondrial superoxide / ROS in HL60 cells (MitoSOX assay); format: cell-based, human
Experimental: Mitochondrial membrane potential and superoxide detection Cells (10e6 cells per assay) were treated with a concentration of WIN-55 for 15, 30, 45 and 60 min at 37° C. Fluorochromes 10 μM TMRM [(tetramethylrhodamine-ethyl-ester-perchlorate), Santa Cruz Biotechnology Inc.] to detect membrane potential, or 5 μM MitoSOX [Molecular Probes (Invitrogen)] to detect mitochondrial superoxide, were added for the last 15 min of treatment. CCCP (uncoupler of oxidative phosphorylation) or H2O2 (oxidant agent) was used as a positive control of the techniques respectively (Labbe et al., 2008). The fluorescence detection of TMRM was measured for flow citometry. Fluorescent intensity was quantified and analyzed using Infinicyt™ Software (Cytognos, Salamanca, Spain).
The MitoSOX signal was detected using a ‘Fluoroscan’ multi-well plate reader (Thermo Labsystems, Thermo Scientific), excitation/emission maxima of 543/593 nm.
To delve into the processes that participate in cannabinoid-induced apoptosis, we evaluated the potential of mitochondrial membrane potential in HL60 cells after treatment with WIN-55, at indicated times, using TMRE assay by flow citometry. We observed that cannabinoids induced a drop of Δψm in HL60 cells (FIG. 20a). The loss of potential started as early as 15 min after exposure to the cannabinoid, and continued decreasing over time. […]

U266 cells [3] = test: Mitochondrial transmembrane potential (TMRE assay) in U266 cells; format: cell-based, human
Experimental: The loss of mitochondrial transmembrane potential (Δψm), a marker of early apoptotic events, was determined by staining with TRME [(tetramethylrhodamine-ethyl-ester-perchlorate), Santa Cruz Biotechnology Inc.]. TMRE is a cell-permeable dye that becomes fluorescent once it is inside the mitochondria and, it can be detected using a fluorescent plate reader (Tecan). Briefly, cells (10e6 cells per assay) were treated with different concentrations of WIN-55 in presence or absence of SPT-inhibitor for 15, 30, 45 and 60 min at 37° C. After washing twice, cells were incubated for 20 min at 37° C. in the dark with 1 uM TMRE. The fluorescent intensity was read in the plate reader with excitation and emission wavelengths set at 485 and 538 nm respectively for red fluorescence. For each condition, triplicate samples (at least five times) were run, fluorescent readings were corrected for background. In all assays, CCCP (2-[2-(3-Chlorophenyl) hydrazinylyidene] propanedinitrile, a potent mitochondrial uncoupler, was used as a positive control of mitochondrial potential status.
The early loss of mitochondrial-membrane potential induced by cannabinoids. To delve into the processes that participate in cannabinoid-induced apoptosis, finally we tested whether the cannabinoid treatment induces changes on Δψm in myelomatous cells. We observed that cannabinoids induced a drop of Δψm in U266 cells (FIG. 10). […]

U266 cells [4] = test: MM xenograft (U266 cells, subcutaneous) in NSG mice; format: in vivo; details: 5 mg/kg WIN-55,212-2 intraperitoneally every 24 h or 48 h
Experimental: NOD/scid/IL-2R gammae null (NSG) mice were purchased from Charles River Laboratories International (L'Arbresle, France) and maintained with food and water ad libitum, under specific pathogen-free conditions. When mice were 8-9 weeks old, human tumor xenografts were induced by subcutaneous inoculation in suprascapular area of MM cell line U266 cells. To establish tumor, 5×10e6 cells were resuspended in 100 ul RPMI medium without serum and 100 ul of Matrigel (BD Biosciences). To easy visualization the hair was trimmed from the site of inoculation. Closely second week following implantation, when tumors became palpable (>0.5 cm), mice were randomly assigned to the following groups (10 mice per group): group 1 received intraperitoneally 5 mg/kg WIN-55,212-2 every 24 h, group 2 received the treatment every 48 hl and group 3 received vehicle. […] Tumor growth was assessed three times each week following tumor implantation. Two bisecting diameters of each tumor were measured with calipers, and the volume was calculated using the formula length x (width) e2×0.4 mm3. […]
The administration with cannabinoids inhibits remarkably the growth of tumor in vivo. Finally, we analyzed the anti-tumor effect of the cannabinoids in vivo, using a model of human MM xenografted in immunodeficient mice NOD/SCID. […]

`CS(=O)(=O)O.Cc1c(C(=O)c2cccc3ccccc23)c2cccc3c2n1[C@H](CN1CCOCC1)CO3` [WIN-55, (R)-(+)-[2,3-dihydro-5-methyl-3-(4-morpholinylmethyl)-pyrrolo-[1,2,3]-1,4-benzoxazin-6-yl]-1-naphthalenylmethanone mesylate] was tested, and the p-Erk1/2 (HL60 cells [1]; HL60, WIN-55 50 uM) was “slightly up-regulated”, the p-Akt (HL60 cells [1]; HL60, time-dependent) was “significantly downregulated” and the “p-p38 MAPK” value (HL60 cells [1]; HL60, time-dependent) was “moderately downregulated”. The “ROS by MitoSOX assay” value (HL60 cells [2]) was “increase”, the “mitochondrial membrane potential (Δψm)” value (U266 cells [3]) was “early loss of potential of mitochondrial membrane” and the “tumor volume / tumor growth compared to vehicle-treated counterparts” value (U266 cells [4]) was “inhibit tumor growth”.
